Data on two compounds can be found in patent US20190161483A1, “METHODS FOR USING FXR AGONISTS” (Novartis AG, priority 2017, published 2019).

The subject of one data set is NASH subjects. Conditions: FLINT trial; placebo 6%; cited from earlier work.
The subject of a further data set is FGRS. In words: FGRS effects (specificity).
Another data set relates to NASH mice. As to the kind of experiment: Diet-induced (AMLN diet) obese, insulin-resistant NASH model. The format is in vivo, mouse. From the text: A separate model for diet-induced NASH was developed as described by Trevaskis et al. Male C57BI6 mice aged ˜6 weeks were maintained on a high fat (40% kcal; Primex), high fructose (22% by weight), and high cholesterol (2% by weight) diet (Research Diets Inc., New Brunswick, N.J. cat. no. D09100301) for 26 weeks to induce NASH. Control animals received low-fat diet (10% kcal) with no fructose or cholesterol (Research Diets, cat. no. D09100304). […] . Expression of collagen, type I, alpha 1 (Col1a1) and tissue inhibitor of metalloproteinase 1 (Timp1) genes was analyzed by real time quantitative PCR.
. NASH was established in mice by feeding a high trans-fat, high fructose, and high cholesterol diet (AMLN diet) for 26 weeks followed by compound treatment for an additional 4 weeks. […] . […] .

The nature of data set [1]: Exposure prediction and exposure-response analysis in NASH patients. The data set is classed as in vivo, human.
A further data set concerns NASH patients. As to the kind of experiment: Tropifexor 140-250 μg in patients with mild to moderate NASH and F2/F3 fibrosis. The data set is classed as in vivo, human. Conditions: dose of about 140 μg to about 250 μg. An excerpt: Adult male and female patients with EITHER histologic evidence of NASH on liver biopsy within 2 years prior to randomization and elevated ALT, OR phenotypic diagnosis of NASH based on elevated ALT, Type 2 diabetes mellitus or elevated HbA1c and increased BMI, in both cases accompanied by liver fat >10% on centrally-read MRI.
Diagnosis of NASH: Adequate liver biopsy sample for evaluation by Central Reader to confirm Histologic evidence of NASH based on liver biopsy obtained during the Screening period or within 6 months before randomization with a diagnosis consistent with NASH, fibrosis level F2 or F3, and no diagnosis of alternative chronic liver diseases._AND_ALT ≥43 IU/L (males) or ≥28 IU/L (females).
Patients are assigned at the baseline visit to one of the following 3 treatment arms in a ratio of 1:1:1 in a blinded manner. Placebo capsules will be given to maintain blinding.
Arm 3: Once daily (morning, fasting) treatment with matching placebo for 48 weeks
The efficacy variables are: MRI for hepatic fat fraction, Liver Function Test, Liver histology, Coagulation test, Markers of liver fibrosis, NAFLD Fibrosis score, Fasting lipids, Fasting insulin and glucose, Soluble biomarkers.

In a further data set the test system is FGF19. In words: Pharmacodynamic marker FGF19 with increasing doses. The format is in vivo. As to conditions: increasing doses up to 3000 μg.
The subject of another data set is STAM mice. As to the kind of experiment: STAM model of NASH.
For data set [2], the system named is ANIT-induced cholestatic rats. As to the kind of experiment: ANIT-induced cholestasis rat model.
Experimental: Rats were sacrificed 3-5 h after the last dose, blood samples were collected by cardiac puncture, and serum biomarkers of cholestasis, namely alanine transaminase (ALT), aspartate transaminase (AST), alkaline phosphatase (ALP), total bilirubin, total BA, and gamma-glutamyl transpeptidase (GGT) were analyzed.
(§1) Liver sections were fixed in 4% paraformaldehyde for 48 h and shipped for histopathological analysis. Liver damage and collagen deposition were assessed by H&E staining and picrosirius red staining, respectively. […] Quantification of images was done with a positive pixel count algorithm using Aperio software (Aperio, Inc., Vista, Calif.).
The nature of data set [3]: Oral gavage toxicity study in dogs for up to 39 weeks. As to conditions: dog, in vivo.

As usually defined, the AUC is concentration integrated over time. A word on the AUC(0-t): it is the area under the concentration-time curve up to a stated or last time point.

Experimental for STAM mice: Further experiments in the STAM model were performed: 2-day old male C57BI/6J mice were injected with streptozotocin and placed on a high-fat diet (HFD) from weeks 4-12 (HFD-32; CLEA-Japan, Tokyo, Japan). […] Hematoxylin & eosin (H&E)-stained sections were evaluated for nonalcoholic fatty liver disease (NAFLD) activity score (NAS) according to previously defined criteria. Liver total lipid-extracts were isolated, and triglycerides were measured using the Triglyceride E-test (Wako Pure Chemical Industries, Ltd., Japan).
as §1

With `CC[C@H]1[C@@H](O)[C@@H]2[C@H](CC[C@]3(C)[C@@H]([C@H](C)CCC(=O)O)CC[C@@H]23)[C@@]2(C)CC[C@@H](O)C[C@@H]12` [OCA, 6α-ethyl-chenodeoxycholic acid], the patients with pruritus in the data set with NASH subjects is 23%.
In the case of `O=C(O)c1cc(F)c2nc(N3C4CC[C@H]3C[C@H](OCc3c(-c5ccccc5OC(F)(F)F)noc3C3CC3)C4)sc2c1` [tropifexor, 2-[(1R,3r,5S)-3-({5-cyclopropyl-3-[2-(trifluoromethoxy)phenyl]-1,2-oxazol-4-yl}methoxy)-8-azabicyclo[3.2.1]octan-8-yl]-4-fluoro-1,3-benzothiazole-6-carboxylic acid], the FGRS effects result in the data set with FGRS is “no FGRS effects”. For the same compound, in the data set with NASH mice (0.3 and 0.9 mg/kg dose groups), the “IBA positive staining (inflammation)” value is recorded as “normalized to the same level of the control diet group”; the “liver histology: steatosis, ballooning, and inflammation” value is “completely reverted”. Further, the “collagen deposition in liver (trichrome staining)” value with NASH mice (even to levels lower than low-fat diet control mice) is “strongly abrogates”. Also, in the data set on NASH mice (high dose), the ALT/AST entry is given as “reduced ALT/AST to an even greater extent”. Besides, the hepatic crown-like structures result with NASH mice (mid- and high dose) is given as “completely eliminated”. Moreover, the “ALT and AST levels” value in the data set with NASH mice (mid-dose level) is “normalized ALT and AST levels to that of control animals”. Besides, in the data set on NASH mice (mouse, in vivo), the “mRNA levels of fibrogenic markers Col1a1 and TIMP1” value is reported as “dramatically reduced”; the “steatosis by quantification of liver triglycerides” value is reported as “Dose-dependent reduction in steatosis”. Further, the “ALT and AST” value in the data set on NASH mice (relative to vehicle-treated controls) is recorded as “dose-dependent reduction”. In addition, the predicted exposure result in data set [1] (200 μg daily in NASH patients) was “approximately 80 ng·hr/ml”. The “NASH patients achieving an AUC >40 ng*h/mL” value in [1] (200 μg dose) is given as around 95%. The AUC in data set [1] (human, in vivo, oral, 200 ug, read-out: exposure level (AUC) in NASH patients) was 80 ng·h/mL. Moreover, in the data set on NASH patients, the “patients with liver fibrosis improvement (at least 1 stage) with no worsening of NAS” value is listed as “about 50%”; the “patients with normalization of liver enzymes” value is on record as at least 50%; the “patients with resolution of NASH (NAS 0 or 1) with no worsening of liver fibrosis” value is listed as “about 30%”; the “pruritus outcomes (NASH PRO, 5-D pruritus or VAS)” value is “no significant pruritus outcomes”. For the same compound, the “reduction of hepatic fat, absolute” value in the data set on NASH patients is listed as 5%. Besides, the FGF19 entry in the data set with FGF19 is “continues to rise”. In addition, in the data set with STAM mice (doses 0.1 and 0.3 mg/kg, qd orally weeks 9-12), the “NAFLD activity score (NAS)” value is reported as “significant decrease”. For the same compound, the fibrosis area result in the data set on STAM mice (in comparison with baseline group) is “decreased in comparison with baseline group”. Moreover, the “pericellular fibrosis (Sirius Red-positive areas)” value in the data set on STAM mice (mouse, in vivo) was “statistically significant dose-dependent reduction”. For the same compound, the liver triglycerides result in the data set with STAM mice (tropifexor qd orally weeks 9-12, relative to baseline group) was “reduction in liver triglycerides”. The “levels of most cholestatic markers” value in data set [2] (1.0 mg/kg dose, oral qd 5 days) is “normalized to corresponding levels of vehicle-treated non-cholestatic control animals”. Moreover, in [2] (dose-dependent manner), the “collagen deposition and liver fibrosis” value is given as “highly reduced”; the “quantitation of collagen deposition (fibrosis)” value is recorded as “significantly decreased”. In addition, in [2] (doses as low as 0.3 mg/kg, oral qd 5 days), the “AST, ALT, total BAs, total bilirubin, and GGT levels” value was “marked reduction”. In addition, the “liver histology: necrosis of the bile duct epithelium, bile duct hyperplasia, inflammatory cell infiltrates” value in [2] (versus vehicle-treated cholestatic rats) is “dose-dependent improvement”. Also, the AUC(0-t) in data set [3] (female) turned out to be 507 ng·h/mL. Further, the area under the curve AUC(0-t) in data set [3] (male) amounted to 898 ng·h/mL.
